Where “and” joins values, the source holds several entries; their conditions need not be identical. Equal values may be shown once. Where a SMILES comes first, the peptide text is derived from it. Bridges are numbered along the chain shown (N, C = ends). [ ]: non-standard residue; d: D form. The star is where a group is joined. ξ: configuration not given here. Decanoyl(3ξ-OH) = CCCCCCCC(O)CC(=O)*; Dab = NCC[CH](N)C(=O)O; Dhb = C/C=C(\N)C(=O)O
How the values were obtained:
Format in all cases: cell-based
Aeromonas caviae = assay: Inhibition rate (IR), propidium iodide uptake
Protocol: (§1) The antimicrobial action for each compound was initially determined by the rate of uptake of propidium iodide (Fluoropure grade, Molecular Probes, Inc., Eugene, Oreg.) as previously described (Haughland, R. P., 2002, Handbook of fluorescent probes and research chemicals, 9th ed. Molecular Probes, Inc., Eugene, Oreg.). Briefly, all cultures were grown overnight in their respective optimal growth medium and temperature from freezer vials (Table 1). Each culture was sub-cultured twice, harvested in mid-log phase, washed with saline, and adjusted to an appropriate concentration by measuring the optical density at 600 nm. PI, with an excitation wavelength of 535 and an emission wavelength of 617, was added to the culture suspension at a final concentration of 10 μM. Each organism was treated with 50 μg/mL SP 25A and 60 μg/mL of the RL mixture in a final volume of 2.2 mL. The increase in fluorescence was measured with a Shimadzu RF 1501 spectrophotofluorometer at 15 s intervals for a maximum period of 120 min. Saline was added in place of SP 25A or RLs as a negative control. All inhibition experiments were done in replicate.
(§2) The rate of antimicrobial action was expressed as the inhibition rate (“IR”). Curve fitting was done using OriginPro version 7.0 (Natick, Mass.). IR=((Log RFU/(Time))−C)/Time (when d Log RFU/dT>0). Where RFU=relative fluorescent units; and C=Y intercept.

Clostridium sporogenes = assay: Inhibition rate (IR), propidium iodide uptake
Protocol: as §1, §2

Enterobacter aerogenes = assay: Inhibition rate (IR), propidium iodide uptake
Protocol: as §1, §2

[1] = test system: Klebsiella pneumoniae subsp. Pneumoniae; assay: Inhibition rate (IR), propidium iodide uptake
Protocol: as §1, §2

Listeria innocua = assay: Inhibition rate (IR), propidium iodide uptake
Protocol: as §1, §2

Listeria monocytogenes = assay: Inhibition rate (IR), propidium iodide uptake
Protocol: as §1, §2

Salmonella enteridis = assay: Inhibition rate (IR), propidium iodide uptake
Protocol: as §1, §2

Enterococcus faecalis = Enterococcus faecalis (multiple drug resistant); 48 h
Protocol: (§3) In order to determine the antimicrobial efficacy of RLs and SPs they were tested against several bacterial strains, some with multiple drug resistance. The multiple drug resistant bacterial strains used were E. faecalis and S. aureus. […] A combination of RLs and SPs were tested against L. monocytogenes.
(§4) The MIC of the compounds for the organisms was determined by the microbroth dilution method, described hereafter. The microorganisms were prepared as described above and resuspended in their optimal growth media (Table 1) to ˜10^5 CFU/mL containing SP 25A at 2, 3, 4, 5, 6, 7, 8, 16, 32 and 50 μg/mL in a total volume of 550 μL. RL concentrations of 2, 3, 4, 5, 6, 7, 8, 16, 32 and 60 μg/mL in a total volume of 550 μL were tested in a 48-well plate (Corning, N.Y.). The plates were incubated at optimal growth conditions for the respective organism and monitored for an increase in OD600 after 48 h by a Perkin-Elmer (HTS 7000) plate reader (Downers Grove, Ill.). […] Negative controls (no inhibition of growth) were included using saline in the assay for each compound. The lowest concentration at which there was no increase in OD over 48 h was reported as the MIC. Each MIC was determined in replicate with three separate tests per replication. The results of the three tests were averaged for each replicate.

[2] = test system: Staphylococcus aureus subsp. aureus; conditions: Staphylococcus aureus subsp. aureus (multiple drug resistant); 48 h
Protocol: as §3, §4

[3] = test system: Listeria monocytogenes EGDe; assay: Membrane permeabilization by PI uptake during treatment
Protocol: Membrane permeabilization was determined through following the change in fluorescence of a dye, propidium iodide (“PI”). PI is unable to pass through the cell membrane unless the membrane has been physically compromised. Once inside the cell, the intercalation of the PI with the DNA of the cell causes the fluorescent properties of the dye to change. This change in fluorescence can be measured. Therefore, an uptake of PI indicates an increase in membrane permeabilization.
FIGS. 6A includes a graph that illustrates the amount of membrane permeabilization in response to SP 25A and RLs. Membrane permeabilization was determined by the increase in fluorescence (RFU) with PI uptake during treatment of L. monocytogenes with SP 25A and RLs over a period of 120 min.
Listeria monocytogenes EGDe was thawed and subcultured twice at 37° C. in brain heart infusion broth (BHI) (DIFCO, Franklin Lanes, N.J.). […]
Total RNA was extracted from a 1.8 mL culture immediately before treating the cells with SP 25A and RLs (T0), after 30 min (T30), and at 120 min (T120) of exposure at 37° C. Simultaneously, the cell density was measured at OD600. Membrane permeabilization was determined by measuring the PI uptake. […] Each well contained five probes for each open reading frame in the entire genome.

In the case of `C/C=C(\NC(=O)C(C)NC(=O)C(C)NC(=O)C(CC(C)C)NC(=O)C(NC(=O)C(C)NC(=O)C(C)NC(=O)C(NC(=O)C1CCCN1C(=O)/C(=C/C)NC(=O)CC(O)CCCCCCC)C(C)C)C(C)C)C(=O)NC(C(=O)N/C(=C\C)C(=O)NC(C)C(=O)NC(C(=O)NC(C)C(=O)NC(C)C(=O)N/C(=C\C)C(=O)NC1C(=O)NC(CO)C(=O)NC(C)C(=O)NC(C(C)C)C(=O)NC(C)C(=O)NC(CCN)C(=O)NC(CCN)C(=O)NC(Cc2ccc(O)cc2)C(=O)OC1C)C(C)C)C(C)C` (stereo not drawn) [SP 25A, syringopeptin 25A] ({Decanoyl(3ξ-OH)}-[Dhb]PVAAVLAA[Dhb]V[Dhb]AVAA[Dhb]TSAVA[Dab][Dab]Y; ester 18-C; configuration not given here), the “IR SP 25A (50 μg/mL)” value (Aeromonas caviae) is reported as 0.000, the “IR SP 25A (50 μg/mL)” value (Clostridium sporogenes) is reported as 0.008 and the “IR SP 25A (50 μg/mL)” value (Enterobacter aerogenes) is reported as 0.000. For the same compound, the “IR SP 25A (50 μg/mL)” value [1] was 0.000, the “IR SP 25A (50 μg/mL)” value (Listeria innocua) was 0.005 and the “inhibition rate relative to the inhibition rate for RLs” value (Listeria monocytogenes; L. monocytogenes, each compound tested by itself) was “approximately one-sixth”. For the same compound, the “IR SP 25A (50 μg/mL)” value (Listeria monocytogenes; Listeria monocytogenes, 50 μg/mL) was 0.005, the “IR SP 25A (50 μg/mL)” value (Salmonella enteridis) was 0.000 and the MIC (Enterococcus faecalis) was 8 µg/mL. The MIC [2] was 8 µg/mL, the “increase in membrane permeabilization (PI uptake)” value ([3]; L. monocytogenes EGDe, 3 μg/mL SP 25A, after 30 min) was ~2% and 2.6% and the “PI uptake (membrane permeabilization)” value ([3]; L. monocytogenes, sub-MIC doses, over 120 min) was “did not”.

From US20080261891A1, “COMPOSITIONS AND METHODS FOR USING SYRINGOPEPTIN 25A AND RHAMNOLIPIDS” (Utah State University, priority 2007, published 2008)
